Drawing on ChEMBL document CHEMBL6074660, “Recent advances in peptoids as promising antimicrobial agents to target diverse microbial species” (Eur J Med Chem, 2024), this text covers IC50, EC50 and Activity for 26 compounds.

Numbered stars: 1 amine (or outer) side, 2 acyl side, 3 side chain; on linkers, the order of the positions; unused ones are H or OH. Square brackets hold non-standard residues; d marks the D form. Peptide text beside a SMILES is read from it. dAla(N-(6-guanidinohexyl)) = C[C@@H](NCCCCCCNC(=N)N)C(=O)O; X1 = C[C@@H](C(=O)[*:2])N(CCCCCCN)[*:1]; X2 = C[C@H](C(=O)[*:2])N(CCCCCCN)[*:1]; 2Nal = N[C@@H](Cc1ccc2ccccc2c1)C(=O)O; X5 = C[C@H](C(=O)[*:2])N(CCCCCN)[*:1]; Gly(N-2-aminoethyl) = NCCNCC(=O)O; Nspe = C[C@H](NCC(=O)O)c1ccccc1

For the first test, the target named is C-X-C chemokine receptor type 4 (Homo sapiens, UniProt P61073). The test is described as follows: Inhibition of CXCR4 receptor (unknown origin).
Sequence of C-X-C chemokine receptor type 4 (P61073 whole entry): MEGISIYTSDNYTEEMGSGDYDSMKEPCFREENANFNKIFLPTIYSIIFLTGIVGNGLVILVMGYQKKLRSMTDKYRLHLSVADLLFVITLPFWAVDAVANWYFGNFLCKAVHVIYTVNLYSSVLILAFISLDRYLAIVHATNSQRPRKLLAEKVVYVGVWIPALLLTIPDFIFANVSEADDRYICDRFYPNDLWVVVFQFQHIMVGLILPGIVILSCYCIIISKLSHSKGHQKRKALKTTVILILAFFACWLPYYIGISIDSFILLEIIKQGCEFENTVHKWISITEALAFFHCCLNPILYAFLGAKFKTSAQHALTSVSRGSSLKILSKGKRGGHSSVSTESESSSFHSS
Conditions: not given
Compound `C[C@H]1C(=O)N[C@@H](CCCNC(=N)N)C(=O)N[C@@H](Cc2ccc3ccccc3c2)C(=O)NCC(=O)N[C@H](Cc2ccc(O)cc2)C(=O)N1CCCCCCN` (cyclo([2Nal]G[dY][X1]R)) had a concentration for half-maximal inhibition (IC50) of 94000 nM. On the same count and under the same terms, the value for `C[C@@H]1C(=O)N[C@@H](CCCNC(=N)N)C(=O)N[C@@H](Cc2ccc3ccccc3c2)C(=O)NCC(=O)N[C@H](Cc2ccc(O)cc2)C(=O)N1CCCCCCN` (cyclo([2Nal]G[dY][X2]R)) was 300 nM; that for `C[C@@H]1C(=O)N[C@@H](CCCNC(=N)N)C(=O)N[C@@H](Cc2ccc3ccccc3c2)C(=O)NCC(=O)N[C@H](Cc2ccc(O)cc2)C(=O)N1CCCCCN` (cyclo([2Nal]G[dY][X5]R)) was 1600 nM.

`C[C@@H]1C(=O)N[C@@H](CCCNC(=N)N)C(=O)N[C@@H](Cc2ccc3ccccc3c2)C(=O)NCC(=O)N[C@H](Cc2ccc(O)cc2)C(=O)N1CCCCCCNC(=N)N` (cyclo([dY][dAla(N-(6-guanidinohexyl))]R[2Nal]G)) displayed an IC50 of 40 nM.

The test system of another test is Human immunodeficiency virus 1. In words: Antiviral activity against HIV-1. It counts as functional, organism-based.
Conditions: not given
As for `C[C@H]1C(=O)N[C@@H](CCCNC(=N)N)C(=O)N[C@@H](Cc2ccc3ccccc3c2)C(=O)NCC(=O)N[C@H](Cc2ccc(O)cc2)C(=O)N1CCCCCCN` (cyclo([2Nal]G[dY][X1]R)), the EC50 is 979000 nM. `C[C@@H]1C(=O)N[C@@H](CCCNC(=N)N)C(=O)N[C@@H](Cc2ccc3ccccc3c2)C(=O)NCC(=O)N[C@H](Cc2ccc(O)cc2)C(=O)N1CCCCCCN` (cyclo([2Nal]G[dY][X2]R)) registered an EC50 of 53000 nM.

For the compound `C[C@@H]1C(=O)N[C@@H](CCCNC(=N)N)C(=O)N[C@@H](Cc2ccc3ccccc3c2)C(=O)NCC(=O)N[C@H](Cc2ccc(O)cc2)C(=O)N1CCCCCCNC(=N)N` (cyclo([dY][dAla(N-(6-guanidinohexyl))]R[2Nal]G)), the EC50 was found to be 29000 nM.

The next test concerns Plasmodium falciparum. In words: Antiplasmodial activity against Plasmodium falciparum 3D7 assessed as inhibition of parasite growth. It counts as functional, organism-based.
Conditions: not given
As for `CN(C)c1ccc(C(=O)N(CC(=O)NCc2ccccc2)Cc2ccc(C(=O)NO)cc2)cc1`, the 50% inhibitory concentration (IC50) came to 9 nM.

On to `Cc1ccccc1C(=O)N(CC(=O)NC(C)(C)C)Cc1ccc(C(=O)NO)cc1`, for which the concentration for half-maximal inhibition (IC50) turned out to be 110 nM. On the same count and under the same terms, under `COc1ccccc1C(=O)N(CC(=O)NC(C)(C)C)Cc1ccc(C(=O)NO)cc1` stands 250 nM. Same read-out and setting: the value for `CC(C)c1ccc(C(=O)N(CC(=O)NCc2ccccc2)Cc2ccc(C(=O)NO)cc2)cc1` was 5 nM; that for `Cc1cc(C)cc(C(=O)N(CC(=O)NCc2ccc(F)cc2)Cc2ccc(C(=O)NO)cc2)c1` was 80 nM; that for `Cc1cccc(CNC(=O)CN(Cc2ccc(C(=O)NO)cc2)C(=O)c2cc(C)cc(C)c2)c1` was 120 nM.

As to `CC(C)c1ccc(C(=O)N(CC(=O)NC2CCCCC2)c2ccc(C(=O)NO)cc2)cc1`, the IC50 was 570 nM. On the same count and under the same terms, the value for `CN(C)c1ccc(C(=O)N(Cc2ccc(C(=O)NO)cc2)C(C)(C)C(=O)NC2CCCCC2)cc1` was 90 nM; that for `Cc1cc(C)cc(C(=O)N(CC(=O)NC2CCCCC2)c2ccc(C(=O)NO)cc2)c1` was 77700 nM; that for `CNC(=O)CN(Cc1ccc(C(=O)NO)cc1)C(=O)c1ccccc1C` was 70 nM. With `Cc1ccc(CNC(=O)CN(Cc2ccc(C(=O)NO)cc2)C(=O)c2cc(C)cc(C)c2)cc1`, the IC50 stood at 42 nM. With `Cc1cc(C)cc(C(=O)N(CC(=O)NCc2ccc(Cl)cc2)Cc2ccc(C(=O)NO)cc2)c1`, the concentration for half-maximal inhibition (IC50) amounted to 90 nM. As to `COc1ccc(CNC(=O)CN(Cc2ccc(C(=O)NO)cc2)C(=O)c2cc(C)cc(C)c2)cc1`, the concentration for half-maximal inhibition (IC50) amounted to 33 nM. Still for that read-out and setting: under `Cc1cc(C)cc(C(=O)N(CC(=O)NCc2ccc(C(C)(C)C)cc2)Cc2ccc(C(=O)NO)cc2)c1` stands 110 nM.

As to `CNC(=O)CN(Cc1ccc(C(=O)NO)cc1)C(=O)c1cc(C)cc(C)c1`, the half-maximal inhibitory concentration (IC50) was 50 nM.

On to `Cc1cc(C)cc(CNC(=O)CN(Cc2ccc(C(=O)NO)cc2)C(=O)c2cc(C)cc(C)c2)c1`, for which the half-inhibitory concentration (IC50) is 70 nM.

Take `CN(C)c1ccc(C(=O)N(Cc2ccc(C(=O)NO)cc2)C(C(=O)NC2CCCCC2)c2ccccc2)cc1` (stereo unspecified): the IC50 amounted to 390 nM.

As for `Cc1cc(C)cc(C(=O)N(CC(=O)NCc2cccnc2)Cc2ccc(C(=O)NO)cc2)c1`, the 50% inhibitory concentration (IC50) came out at 70 nM. For `CC(C)(C)c1ccc(C(=O)N(CC(=O)NCc2ccccc2)Cc2ccc(C(=O)NO)cc2)cc1`, the IC50 worked out at 8 nM.

In the case of `Cc1cc(C)cc(C(=O)N(CC(=O)NCc2ccccc2)Cc2ccc(C(=O)NO)cc2)c1`, the IC50 turned out to be 37 nM.

Another test deals with Leishmania amazonensis. In words: Antileishmanial activity against Leishmania amazonensis promastigotes assessed as inhibition of parasite growth at 10 uM incubated for 24 hrs relative to control. The arrangement: scale not given: the % may be the effect or the level left. The test is classed as functional.
Conditions: not given
`CCCCN(C(C)=O)C(C(=O)NCS(=O)(=O)c1ccc(C)cc1)c1ccccc1` (stereo unspecified): the Activity was found to be 66.83%.

Another test concerns Leishmania amazonensis. The test is described as follows: Antileishmanial activity against Leishmania amazonensis promastigotes assessed as inhibition of parasite growth at 10 uM incubated for 48 hrs relative to control. The test is classed as functional. Set-up: scale not given: the % may be the effect or the level left.
Conditions: not given
Turning to `CCCCN(C(C)=O)C(C(=O)NCS(=O)(=O)c1ccc(C)cc1)c1ccccc1` (stereo unspecified), the Activity stood at 87.87%.

The next test concerns Leishmania mexicana. In words: Antileishmanial activity against Leishmania mexicana promastigotes. It counts as functional. The conditions noted are these: read-out: ED50 (the source's name).
For the compound `C[C@@H](c1ccccc1)N(CC(N)=O)C(=O)CN(C(=O)CN(CCN)C(=O)CN(C(=O)CN(C(=O)CN(CCN)C(=O)CN(C(=O)CN(C(=O)CN(CCN)C(=O)CN(C(=O)CN(C(=O)CNCCN)[C@@H](C)c1ccccc1)[C@@H](C)c1ccccc1)[C@@H](C)c1ccccc1)[C@@H](C)c1ccccc1)[C@@H](C)c1ccccc1)[C@@H](C)c1ccccc1)[C@@H](C)c1ccccc1` (H-[Gly(N-2-aminoethyl)][Nspe][Nspe][Gly(N-2-aminoethyl)][Nspe][Nspe][Gly(N-2-aminoethyl)][Nspe][Nspe][Gly(N-2-aminoethyl)][Nspe][Nspe]-NH2), the EC50 was found to be 7000 nM.

The test system of the next test is Leishmania mexicana. The test is described as follows: Antileishmanial activity against Leishmania mexicana amastigotes. It counts as functional. The following applies: read-out: ED50 (the source's name).
Regarding `C[C@@H](c1ccccc1)N(CC(N)=O)C(=O)CN(C(=O)CN(CCN)C(=O)CN(C(=O)CN(C(=O)CN(CCN)C(=O)CN(C(=O)CN(C(=O)CN(CCN)C(=O)CN(C(=O)CN(C(=O)CNCCN)[C@@H](C)c1ccccc1)[C@@H](C)c1ccccc1)[C@@H](C)c1ccccc1)[C@@H](C)c1ccccc1)[C@@H](C)c1ccccc1)[C@@H](C)c1ccccc1)[C@@H](C)c1ccccc1` (H-[Gly(N-2-aminoethyl)][Nspe][Nspe][Gly(N-2-aminoethyl)][Nspe][Nspe][Gly(N-2-aminoethyl)][Nspe][Nspe][Gly(N-2-aminoethyl)][Nspe][Nspe]-NH2), the EC50 was found to be 17000 nM.
